The results in this text go back to US7223759B2, “Antibacterial 3,5-diaminopiperidine-substituted aromatic and heteroaromatic compounds” (Anadys Pharmaceuticals, Inc., priority 2003, dated 2007).

For one assay, the system named is Escherichia coli (ATCC25922) or Staphylococcus aureus (ATCC25923). Put plainly: Antibacterial MIC, microdilution method in Mueller-Hinton medium. The following applies: Escherichia coli, 18 h, MIC in E. coli or S. aureus; two-fold serial dilutions 64 to 0.5 μg/ml in duplicate; 18 hours of incubation at 35° C.; read-out: Potency (MIC). Format: cell-based. An outline of the steps: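 Two-fold serial dilutions from 64 to 0.5 μg/ml, in duplicate, by broth microdilution in Mueller-Hinton medium (NCCLS M7-A5). MIC taken as the lowest concentration preventing visible growth after 18 h at 35° C.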
(In broth dilution the organism is exposed to a series of concentrations in liquid medium.)
As to `Cl.O=C(Nc1ccc(Nc2nc(NCCCn3ccnc3)nc(N3CCCCC3)n2)cc1O)c1ccc(Cl)cc1`, the MIC (as a rule, the lowest concentration that inhibits growth of the organism) is < 64 µg/mL.

As to `Cl.O=C(Nc1ccc(Nc2nc(N3CCCCC3)nc(N3CCCCC3)n2)cc1)c1ccc2ccccc2c1O` [1-Hydroxy-naphthalene-2-carboxylic acid {4-[4-((3S,5R)-3,5-diamino-piperidin-12-yl)-6-((3R,5R)-3,5-dihydroxy-piperidin-1-yl)-[1,3,5]triazin-2-ylamino]-phenyl}-amide], the MIC is < 64 µg/mL.

On to `Cc1ccc(C(=O)Nc2ccc(Nc3nc(N4CCN(c5ccncc5)CC4)nc(N4C[C@H](N)C[C@H](N)C4)n3)cc2O)cc1` [N-{4-[4-((3R,5S)-3,5-Diamino-piperidin-1-yl)-6-(4-pyridin-4-yl-piperazin-1-yl)-[1,3,5]triazin-2-ylamino]-2-hydroxy-phenyl}-4-methyl-benzamide], for which the MIC was < 64 µg/mL.

On to `Cl.NS(=O)(=O)c1ccc(NC(=O)CC(=O)c2ccc(Nc3nc(N4CCCCC4)nc(N4CCCCC4)n3)cc2)cc1` [N-{4-[2-(4-sulfamoyl-phenylcarbamoyl)-acetyl]-phenyl}-44,6-Bis-((3R,5S)-3,5-diamino-piperidin-1-yl)-[1,3,5]triazine-2-amine], for which the MIC was < 64 µg/mL. Consider `Cl.N[C@@H]1C[C@H](N)CN(c2nc(Nc3ccc4[nH]cnc4c3)nc(N3C[C@H](N)C[C@H](N)C3)n2)C1` [N-(1H-benzoimidazol-5-yl)-4,6-Bis-((3R,5S)-3,5-diamino-piperidin-1-yl)-[1,3,5]triazine-2-amine], for which the MIC was < 64 µg/mL.

The assay is the same for the next values; noted with them: Escherichia coli, 18 h, read-out: Potency (MIC).
`N[C@@H]1C[C@H](N)CN(c2nc(Nc3ccc(-n4c5ccccc5c5ccccc54)cc3)nc(N3C[C@H](N)C[C@H](N)C3)n2)C1` [N-(4-carbazol-9-yl-phenyl)-4,6-Bis-((3R,5S)-3,5-diamino-piperidin-1-yl)-[1,3,5]triazine-2-amine]: the MIC is < 16 µg/mL. Consider `N[C@@H]1C[C@H](N)CN(c2nc(Nc3ccc(NS(=O)(=O)CCCCl)c(O)c3)nc(N3C[C@H](N)C[C@H](N)C3)n2)C1` [N-[4-(3-chloro-propane-1-sulfonylamino)-3-hydroxy-phenyl]-4,6-Bis-((3R,5S)-3,5-diamino-piperidin-1-yl)-[1,3,5]triazine-2-amine], for which the MIC was > 64 µg/mL.

Take `COc1cccc(OC)c1C(=O)Nc1ccc(Nc2nc(N3C[C@H](N)C[C@H](N)C3)nc(N3C[C@H](N)C[C@H](N)C3)n2)cc1O` [N-[4-(2,6-dimethoxy-benzoylamino)-3-hydroxy-phenyl]-4,6-Bis-((3R,5S)-3,5-diamino-piperidin-1-yl)-[1,3,5]triazine-2-amine]: the MIC was < 64 µg/mL.

Take `CC(C)c1cc(C(=O)Nc2ccc(Nc3nc(N4C[C@H](N)C[C@H](N)C4)nc(N4C[C@H](N)C[C@H](N)C4)n3)cc2)c(O)c(C(C)C)c1` [N-[4-(2-hydroxy-3,5-diisopropyl-benzoylamino)-phenyl]-4,6-Bis-((3R,5S)-3,5-diamino-piperidin-1-yl)-[1,3,5]triazine-2-amine]: the MIC is < 16 µg/mL. Same read-out and setting: to `NC[C@H]1[C@@H](O)CCN1c1nc(Nc2ccc(NC(=O)c3ccc4ccccc4c3O)cc2)nc(N2C[C@H](N)C[C@H](N)C2)n1` [1-Hydroxy-naphthalene-2-carboxylic acid {4-[4-((2S,3S)-2-aminomethyl-3-hydroxy-pyrrolidin-1-yl)-6-((3R,5S)-3,5-diamino-piperidin-1-yl)-[1,3,5]triazin-2-ylamino]-phenyl}-amide] belongs < 16 µg/mL; to `N[C@@H]1C[C@H](N)CN(c2nc(Nc3ccc(C(=O)CC(=O)Nc4ccc(S(=O)(=O)Nc5ccc6cn[nH]c6c5)cc4)cc3)nc(N3C[C@H](N)C[C@H](N)C3)n2)C1` [N-(4-{2-[4-(1H-indazol-6-ylsulfamoyl)-phenylcarbamoyl]-acetyl}-phenyl)-4,6-Bis-((3R,5S)-3,5-diamino-piperidin-1-yl)-[1,3,5]triazine-2-amine], < 64 µg/mL. As for `Cc1ccc(S(=O)(=O)N(Cc2ccccc2)c2ccc(NC(=O)c3ccc(Nc4nc(N5C[C@H](N)C[C@H](N)C5)nc(N5C[C@H](N)C[C@H](N)C5)n4)cc3O)cc2O)cc1` [N-(4-{4-[benzyl-(toluene-4-sulfonyl)-amino]-3-hydroxy-phenylcarbamoyl)-3-hydroxy-phenyl)-4,6-Bis-((3R,5S)-3,5-diamino-piperidin-1-yl)-[1,3,5]triazine-2-amine], the MIC was < 16 µg/mL. Take `N[C@@H]1C[C@H](N)CN(c2ncnc(Nc3ccc(NC(=O)c4ccc5ccccc5c4O)cc3)n2)C1` [1-Hydroxy-naphthalene-2-carboxylicacid {4-[4-((3S,5R)-3,5-diamino-piperidin-1-yl)-[1,3,5]triazin-2-ylamino]-phenyl}-amide]: the MIC was < 16 µg/mL.

In the case of `N[C@@H]1C[C@H](N)CN(c2nc(NCc3ccc(-c4ccccc4)cc3)nc(N3C[C@H](N)C[C@H](N)C3)n2)C1` [N-biphenyl-4-ylmethyl-4,6-Bis-((3R,5S)-3,5-diamino-piperidin-1-yl)-[1,3,5]triazine-2-amine], the MIC was < 64 µg/mL. As to `N[C@@H]1C[C@H](N)CN(c2nc(Nc3ccc4c(c3)-c3ccccc3C4=O)nc(N3C[C@@H](N)[C@@H](N)C3)n2)C1` [3-[4-((3R,5S)-3,5-Diamino-piperidin-1-yl)-6-((3R,4S)-3,4-diamino-pyrrolidin-1-yl)-[1,3,5]triazin-2-ylamino]-fluoren-9-one], the MIC was < 64 µg/mL. As for `COc1ccc(Nc2nc(N3C[C@H](N)C[C@H](N)C3)nc(N3C[C@H](N)C[C@H](N)C3)n2)c(NC(=O)c2cccc([N+](=O)[O-])c2O)c1` [N-[2-(2-hydroxy-3-nitro-benzoylamino)-4-methoxy-phenyl]-4,6-Bis-((3R,5S)-3,5-diamino-piperidin-1-yl)-[1,3,5]triazine-2-amine], the MIC was > 64 µg/mL. For `COc1nc(Nc2ccc(S(=O)(=O)Nc3ccc4cn[nH]c4c3)cc2)nc(N2C[C@H](N)C[C@H](N)C2)n1` [4-[4-((3R,5S)-3,5-Diamino-piperidin-1-yl)-6-methoxy-[1,3,5]triazin-2-ylamino]-N-(1H-indazol-6-yl)-benzenesulfonamide], the MIC is > 64 µg/mL. Same read-out and setting: to `N[C@@H]1C[C@H](N)CN(c2nc(Nc3ccc(NC(=O)c4ccc(Cl)cc4)c(O)c3)nc(N3CCC(N4CCCC4)CC3)n2)C1` [4-Chloro-N-{4-[4-((3S,5R)-3,5-diamino-piperidin-1-yl)-6-(4-pyrrolidin-1-yl-piperidin-1-yl)-[1,3,5]triazin-2-ylamino]-2-hydroxy-phenyl}-benzamide] belongs < 64 µg/mL. Still for that read-out and setting: to `N#CCCNS(=O)(=O)c1ccc(Cl)c(Nc2nc(N3C[C@H](N)C[C@H](N)C3)nc(N3C[C@H](N)C[C@H](N)C3)n2)c1` [N-[2-chloro-5-(2-cyano-ethylsulfamoyl)-phenyl]-4,6-Bis-((3R,5S)-3,5-diamino-piperidin-1-yl)-[1,3,5]triazine-2-amine] belongs > 64 µg/mL; to `Cc1cc(Nc2nc(N3C[C@H](N)C[C@H](N)C3)nc(N3C[C@H](N)C[C@H](N)C3)n2)ccc1NC(=O)c1cccc(O)c1O` [N-[4-(2,3-dihydroxy-benzoylamino)-3-methyl-phenyl]-4,6-Bis-((3R,5S)-3,5-diamino-piperidin-1-yl)-[1,3,5]triazine-2-amine], < 16 µg/mL; to `N[C@@H]1C[C@H](N)CN(c2nc(Nc3ccc(NC(=O)c4ccc(Cl)cc4)c(O)c3)nc(N3C[C@H](O)C[C@@H](O)C3)n2)C1` [4-Chloro-N-{4-[4-((3S,5R)-3,5-diamino-piperidin-1-yl)-6-((3R,5R)-3,5-dihydroxy-piperidin-1-yl)-[1,3,5]triazin-2-ylamino]-2-hydroxy-phenyl}-benzamide], < 64 µg/mL.
